# According to patent US20240261417A1, “SOS1 DEGRADING AGENT AND PREPARATION METHOD THEREFOR AND APPLICATION THEREOF” (SHANGHAI LEADINGTAC PHARMACEUTICAL CO. LTD., priority 2021, published 2024):
# Target: T1, SOS1 protein (Homo sapiens, UniProt Q07889)
# T1 sequence (Q07889 1-1333): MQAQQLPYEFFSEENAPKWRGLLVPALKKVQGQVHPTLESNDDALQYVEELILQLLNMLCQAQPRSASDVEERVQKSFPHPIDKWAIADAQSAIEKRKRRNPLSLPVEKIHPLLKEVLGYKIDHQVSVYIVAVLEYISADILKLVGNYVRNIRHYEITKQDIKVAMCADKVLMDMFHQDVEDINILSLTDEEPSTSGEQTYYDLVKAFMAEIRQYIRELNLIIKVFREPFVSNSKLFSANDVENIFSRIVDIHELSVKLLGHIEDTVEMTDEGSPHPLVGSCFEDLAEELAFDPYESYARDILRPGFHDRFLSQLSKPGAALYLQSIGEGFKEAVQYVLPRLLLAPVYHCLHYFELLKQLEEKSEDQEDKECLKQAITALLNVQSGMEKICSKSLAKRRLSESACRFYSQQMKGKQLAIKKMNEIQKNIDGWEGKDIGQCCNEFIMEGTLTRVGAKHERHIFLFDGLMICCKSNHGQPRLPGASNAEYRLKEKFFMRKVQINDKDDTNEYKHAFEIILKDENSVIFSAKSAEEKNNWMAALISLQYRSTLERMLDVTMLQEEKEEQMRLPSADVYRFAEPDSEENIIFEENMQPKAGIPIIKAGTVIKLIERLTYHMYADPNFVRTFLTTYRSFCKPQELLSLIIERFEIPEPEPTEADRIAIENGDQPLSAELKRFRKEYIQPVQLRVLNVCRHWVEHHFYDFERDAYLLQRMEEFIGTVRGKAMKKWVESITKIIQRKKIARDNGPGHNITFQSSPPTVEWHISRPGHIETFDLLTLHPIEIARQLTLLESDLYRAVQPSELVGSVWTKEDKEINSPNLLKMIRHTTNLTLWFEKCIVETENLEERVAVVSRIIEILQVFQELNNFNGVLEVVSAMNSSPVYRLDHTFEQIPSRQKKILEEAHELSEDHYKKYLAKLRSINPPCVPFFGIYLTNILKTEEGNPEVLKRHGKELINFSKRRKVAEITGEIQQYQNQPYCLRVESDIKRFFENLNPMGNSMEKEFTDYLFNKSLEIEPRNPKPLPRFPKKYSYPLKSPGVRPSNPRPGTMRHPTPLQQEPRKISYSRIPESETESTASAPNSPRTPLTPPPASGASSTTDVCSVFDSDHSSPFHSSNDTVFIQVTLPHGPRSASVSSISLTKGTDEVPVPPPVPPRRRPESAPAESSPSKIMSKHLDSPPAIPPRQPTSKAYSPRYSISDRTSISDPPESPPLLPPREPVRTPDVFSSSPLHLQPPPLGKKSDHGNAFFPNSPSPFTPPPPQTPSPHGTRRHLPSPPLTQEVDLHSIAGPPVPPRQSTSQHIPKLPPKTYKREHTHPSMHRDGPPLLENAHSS
# Assay: SOS1 degradation assay (Western blot), NCI-H358 cells
# Format: cell-based
# Parameters: The degradation of SOS1 by the compounds was investigated on KRAS G12C mutant human non-small cell lung cancer cells NCI-H358; host or cells: NCI-H358 (human cancer cell lines)
# Conditions: SOS1 degradation, NCI-H358 cells, 24 h, Western blot; for DC50: read-out: NCI-H358 (G12C) DC50; for Dmax: read-out: NCI-H358 (G12C) Dmax
# How it was run: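 Cells at 5×10^5 per well were treated for 24 h at 37 °C with compound at 0.03–3000 nM final. SOS1 in lysates was measured by Western blot with chemiluminescent densitometry and normalised to the control group. DC50 and Dmax came from nonlinear fits against log concentration.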
Structure (SMILES),DC50,Dmax,NCI-H358 (G12C) Dmax
"COc1cc2nc(C)nc(N[C@H](C)c3cc(N)cc(C(F)(F)F)c3)c2cc1[C@H]1CC[C@H](C(=O)N2CCN(CC3CCN(C(=O)c4ccc(Cl)c(N5CCC(=O)NC5=O)c4)CC3)CC2)CC1 [Example 13, 1-(5-(4-((4-((1R,4R)-4-(4-(((R)-1-(3-amino-5-(trifluoromethyl)phenyl)ethyl)amino)-7-methoxy-2-methylquinazolin-6-yl)cyclohexane-1-carbonyl)piperazin-1-yl)methyl)piperidine-1-carbonyl)-2-chlorophenyl)dihydropyrimidine-2,4(1H,3H)-dione]",1000 to 10000 nM,30 to 50%,–
"COc1cc2nc(C)nc(N[C@H](C)c3cc(N)cc(C(F)(F)F)c3)c2cc1[C@H]1CC[C@H](C(=O)N2CCN(CCCCC3CCN(C(=O)c4ccc(Cl)c(N5CCC(=O)NC5=O)c4)CC3)CC2)CC1 [Example 29, 1-(5-(4-(4-(4-((1R,4R)-4-(4-(((R)-1-(3-amino-5-(trifluoromethyl)phenyl)ethyl)amino)-7-methoxy-2-methylquinazolin-6-yl)cyclohexane-1-carbonyl)piperazin-1-yl)butyl)piperidine-1-carbonyl)-2-chlorophenyl)dihydropyrimidine-2,4(1H,3H)-dione]",< 50 nM,80 to 100%,–
"COc1cc2nc(C)nc(N[C@H](C)c3cc(N)cc(C(F)(F)F)c3)c2cc1[C@H]1CC[C@H](C(=O)N2CCC(COCC3CCN(C(=O)c4ccc(Cl)c(N5CCC(=O)NC5=O)c4)CC3)CC2)CC1 [Example 76, 1-(5-(4-(((1-((1R,4R)-4-(4-(((R)-1-(3-amino-5-(trifluoromethyl)phenyl)ethyl)amino)-7-methoxy-2-methylquinazolin-6-yl)cyclohexane-1-carbonyl)piperidin-4-yl)methoxy-d2)methyl)piperidine-1-carbonyl)-2-chlorophenyl)dihydropyrimidine-2,4(1H,3H)-dione]",< 50 nM,–,–
"COc1cc2nc(C)nc(N[C@H](C)c3cc(N)cc(C(F)(F)F)c3)c2cc1[C@H]1CC[C@H](C(=O)N2CCC(CC3CCC4(CC3)CCN(C(=O)c3ccc(Cl)c(N5CCC(=O)NC5=O)c3)CC4)CC2)CC1 [Example 8, 1-(5-(9-((1-((1R,4R)-4-(4-(((R)-1-(3-amino-5-(trifluoromethyl)phenyl)ethyl)amino)-7-methoxy-2-methylquinazolin-6-yl)cyclohexane-1-carbonyl)piperidin-4-yl)methyl)-3-azaspiro[5.5]undecane-3-carbonyl)-2-chlorophenyl)dihydropyrimidine-2,4(1H,3H)-dione]",50 to 100 nM,80 to 100%,–
"COc1cc2nc(C)nc(N[C@H](C)c3cc(N)cc(C(F)(F)F)c3)c2cc1[C@H]1CC[C@H](C(=O)N2CCN(CCCC3CCN(C(=O)c4ccc(Cl)c(N5CCC(=O)NC5=O)c4)CC3)CC2)CC1 [Example 11, 1-(5-(4-(3-(4-((1R,4R)-4-(4-(((R)-1-(3-amino-5-(trifluoromethyl)phenyl)ethyl)amino)-7-methoxy-2-methylquinazolin-6-yl)cyclohexane-1-carbonyl)piperazin-1-yl)propyl)piperidine-1-carbonyl)-2-chlorophenyl)dihydropyrimidine-2,4(1H,3H)-dione]",1000 to 10000 nM,30 to 50%,–
"COc1cc2nc(C)nc(N[C@H](C)c3cc(N)cc(C(F)(F)F)c3)c2cc1OC1CCN(CC2CCC3(CC2)CCN(C(=O)c2ccc(Cl)c(N4CCC(=O)NC4=O)c2)CC3)CC1 [Example 6, (R)-1-(5-(9-((4-((4-((1-(3-amino-5-(trifluoromethyl)phenyl)ethyl)amino)-7-methoxy-2-methylquinazolin-6-yl)oxy)piperidin-1-yl)methyl)-3-azaspiro[5.5]undecane-3-carbonyl)-2-chlorophenyl)dihydropyrimidine-2,4(1H,3H)-dione]",1000 to 10000 nM,30 to 50%,–
"COc1cc2nc(C)nc(N[C@H](C)c3cc(NC(C)=O)cc(C(F)(F)F)c3)c2cc1[C@H]1CC[C@H](C(=O)N2CCN(CC3CCC4(CC3)CCN(C(=O)c3ccc(Cl)c(N5CCC(=O)NC5=O)c3)CC4)CC2)CC1 [Example 17, N-(3-((R)-1-((6-((1R,4R)-4-(4-((3-(4-chloro-3-(2,4-dioxotetrahydropyrimidin-1(2H)-yl)benzoyl)-3-azaspiro[5.5]undecane-9-yl)methyl)piperazine-1-carbonyl)cyclohexyl)-7-methoxy-2-methylquinazolin-4-yl)amino)ethyl)-5-(trifluoromethyl)phenyl)acetamide]",1000 to 10000 nM,30 to 50%,–
"COc1cc2nc(C)nc(N[C@H](C)c3cc(N)cc(C(F)(F)F)c3)c2cc1[C@H]1CC[C@H](C(=O)N(C)CCOCC#CC2CCN(C(=O)c3ccc(Cl)c(N4CCC(=O)NC4=O)c3)CC2)CC1 [Example 26, (1R,4R)-4-(4-(((R)-1-(3-amino-5-(trifluoromethyl)phenyl)ethyl)amino)-7-methoxy-2-methylquinazolin-6-yl)-N-(2-((3-(1-(4-chloro-3-(2,4-dioxotetrahydropyrimidin-1(2H)-yl)benzoyl)piperidin-4-yl)prop-2-yn-1-yl)oxo)ethyl)-N-methylcyclohexane-1-carboxamide]",1000 to 10000 nM,–,"D (when Dmax (%)<30, the level was D)"
"COc1cc2nc(C)nc(N[C@H](C)c3cc(N)cc(C(F)(F)F)c3)c2cc1[C@H]1CC[C@H](C(=O)N2CCN(CC3CCN(C(=O)COc4ccc(Cl)c(N5CCC(=O)NC5=O)c4)CC3)CC2)CC1 [Example 37, 1-(5-(2-(4-((4-((1R,4R)-4-(4-(((R)-1-(3-amino-5-(trifluoromethyl)phenyl)ethyl)amino)-7-methoxy-2-methylquinazolin-6-yl)cyclohexane-1-carbonyl)piperazin-1-yl)methyl)piperidin-1-yl)-2-oxoethoxy)-2-chlorophenyl)dihydropyrimidine-2,4(1H,3H)-dione]",1000 to 10000 nM,< 30%,–
"COc1cc2nc(C)nc(N[C@H](C)c3cccc(C(F)(F)F)c3F)c2cc1[C@H]1CC[C@H](C(=O)N2CCN(CC3CCC4(CC3)CCN(C(=O)c3ccc(Cl)c(N5CCC(=O)NC5=O)c3)CC4)CC2)CC1 [Example 16, 1-(2-chloro-5-(9-((4-((1R,4R)-4-(4-(((R)-1-(2-fluoro-3-(trifluoromethyl)phenyl)ethyl)amino)-7-methoxy-2-methylquinazolin-6-yl)cyclohexane-1-carbonyl)piperazin-1-yl)methyl)-3-azaspiro[5.5]undecane-3-carbonyl)phenyl)dihydropyrimidine-2,4(1H,3H)-dione]",500 to 1000 nM,50 to 80%,–
